Measured values as given in the supplement of paper PMC10307832.

Assays:
Assay in all cases: relative viability (nuclei count vs DMSO), 5 days (fraction); higher = more cells survive
Shikonin + Crizotinib = compound: CC(C)=CC[C@@H](O)C1=CC(=O)c2c(O)ccc(O)c2C1=O [Shikonin] + C[C@@H](Oc1cc(-c2cnn(C3CCNCC3)c2)cnc1N)c1c(Cl)ccc(F)c1Cl [Crizotinib] (partner 1 µM)
Outline: (§1)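 Relative viability is defined as nuclei in treated wells over nuclei in vehicle wells. Duplicate plates were run and medians reported. Lung cancer cell lines in 1536-well plates were dosed by pin tool one day after seeding, with one drug or with a fixed anchor-drug dose plus five library-drug doses (not always all listed) in √10 steps, and nuclei were counted after 5 days.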

[1] = compound: CC(C)N(CCCNC(=O)Nc1ccc(C(C)(C)C)cc1)C[C@H]1O[C@@H](n2ccc3c(N)ncnc32)[C@H](O)[C@@H]1O + O=C(CCCCCCC(=O)Nc1ccccc1)NO [Vorinostat] (partner 1 µM)
Outline: as §1

[2] = compound: CC(C)N(CCCNC(=O)Nc1ccc(C(C)(C)C)cc1)C[C@H]1O[C@@H](n2ccc3c(N)ncnc32)[C@H](O)[C@@H]1O + Cc1cc(Nc2cc(N3CCN(C)CC3)nc(Sc3ccc(NC(=O)C4CC4)cc3)n2)n[nH]1 [Tozasertib] (partner 0.1 µM)
Outline: as §1

Shikonin + Decitabine = compound: CC(C)=CC[C@@H](O)C1=CC(=O)c2c(O)ccc(O)c2C1=O [Shikonin] + Nc1ncn([C@H]2C[C@H](O)[C@@H](CO)O2)c(=O)n1 [Decitabine] (partner 2 µM)
Outline: as §1

Row | Cell Line | relative viability (Shikonin + Crizotinib; first compound 0.01 µM) | relative viability (Shikonin + Crizotinib; first compound 0.1 µM) | relative viability (Shikonin + Crizotinib; first compound 0.3162 µM) | relative viability (Shikonin + Crizotinib; first compound 1 µM) | relative viability ([1]; first compound 0.08 µM) | relative viability ([1]; first compound 0.253 µM) | relative viability ([1]; first compound 0.8 µM) | relative viability ([1]; first compound 2.53 µM) | relative viability ([1]; first compound 8 µM) | relative viability ([2]; first compound 0.08 µM) | relative viability ([2]; first compound 0.253 µM) | relative viability ([2]; first compound 0.8 µM) | relative viability ([2]; first compound 2.53 µM) | relative viability ([2]; first compound 8 µM) | relative viability (Shikonin + Decitabine; first compound 0.01 µM) | relative viability (Shikonin + Decitabine; first compound 0.1 µM) | relative viability (Shikonin + Decitabine; first compound 0.3162 µM) | relative viability (Shikonin + Decitabine; first compound 1 µM)
1 | HCC-44 | 0.933 | 0.86 | 0.891 | 0.825 | 1.1 | 1.26 | 1.04 | 1.1 | 1.01 | 0.99 | 1.11 | 0.869 | 1.01 | 1.04 | 0.953 | 0.928 | 1.1 | 0.979
2 | HCC-827 | 0.939 | 0.974 | 0.933 | 0.935 | 0.862 | 0.903 | 0.579 | 0.902 | 0.875 | 0.423 | 0.425 | – | 0.436 | 0.412 | 0.326 | 0.29 | 0.33 | 0.329
3 | NCI-H1623 | – | – | – | – | – | – | – | – | – | 0.426 | 0.452 | 0.414 | 0.408 | 0.45 | – | – | – | –
4 | NCI-H2405 | 0.854 | 0.819 | 0.935 | 0.852 | 1.06 | 0.969 | 0.928 | 1.07 | 0.92 | 0.706 | 0.82 | 0.783 | 0.822 | 0.703 | 0.827 | 0.889 | 0.762 | 0.702
5 | RERF-LC-KJ | 0.945 | 0.91 | 0.829 | 0.899 | 0.638 | 0.741 | 0.551 | 0.742 | 0.707 | 0.505 | 0.495 | 0.546 | 0.509 | 0.474 | 0.782 | 0.703 | 0.636 | 0.653
6 | NCI-H1651 | 0.857 | 0.831 | 0.883 | 0.876 | 0.543 | 0.542 | 0.504 | 0.577 | 0.576 | 0.624 | 0.752 | 0.628 | 0.725 | 0.579 | 0.621 | 0.656 | 0.66 | 0.641
7 | HARA | 1.18 | 1.19 | 1.11 | 1.21 | 0.559 | 0.511 | 0.529 | 0.496 | 0.475 | 0.097 | 0.13 | 0.109 | 0.0913 | 0.0981 | 0.516 | 0.674 | 0.691 | 0.591
8 | NCI-H1650 | 1.06 | 0.993 | 1.06 | 0.691 | 0.451 | 0.608 | 0.485 | 0.474 | 0.444 | 0.483 | 0.358 | – | 0.398 | 0.439 | 0.379 | 0.355 | 0.424 | 0.389
9 | NCI-H1395 | – | – | – | – | 0.727 | 0.58 | 0.427 | 0.638 | 0.786 | 0.727 | 0.731 | 0.63 | 0.774 | 0.741 | 0.719 | 0.796 | 0.692 | 0.71
10 | NCI-H520 | – | 0.878 | 0.608 | 0.842 | 0.849 | 0.711 | 0.801 | 0.753 | 0.843 | 0.453 | 0.512 | – | 0.416 | 0.437 | 0.47 | 0.598 | 0.454 | 0.401
11 | LU99A | 0.545 | 0.688 | 0.599 | 0.465 | 0.454 | 0.342 | 0.483 | 0.539 | 0.409 | 0.279 | 0.316 | 0.276 | 0.237 | 0.261 | 0.744 | 1.05 | 0.978 | 0.852
12 | NCI-H1355 | 1.16 | 1.31 | 1.19 | 1.12 | 0.592 | 0.632 | 0.529 | 0.642 | 0.575 | 0.581 | 0.536 | 0.574 | 0.501 | 0.55 | 0.339 | 0.4 | 0.38 | 0.337
13 | HCC-78 | 0.325 | 0.388 | 0.357 | 0.377 | 0.41 | 0.391 | 0.4 | 0.42 | 0.488 | 0.371 | 0.383 | 0.351 | 0.366 | 0.484 | 0.71 | 0.638 | 0.721 | 0.732
14 | NCI-H1563 | 0.891 | 0.845 | 0.751 | 0.622 | – | – | – | – | – | – | – | – | – | – | – | – | – | –
15 | HCC-15 | 0.89 | 0.916 | 0.913 | 0.928 | 0.92 | 0.806 | 0.888 | 0.818 | 0.793 | 0.354 | 0.542 | 0.369 | 0.401 | 0.337 | 0.575 | 0.848 | 0.638 | 0.792
16 | EKVX | 1.05 | 1.2 | 0.996 | 1.07 | 0.64 | 0.772 | 0.705 | 0.62 | 0.705 | 0.449 | 0.347 | 0.373 | 0.434 | 0.388 | 0.295 | 0.367 | 0.312 | 0.584
17 | NCI-H2126 | 1.08 | 1.21 | 1.1 | 1.04 | 0.672 | 0.702 | 0.825 | 0.721 | 0.711 | 0.844 | 0.834 | 0.812 | 0.843 | 0.786 | 0.593 | 0.589 | 0.628 | 0.559
18 | LK-2 | 0.248 | 0.212 | 0.219 | 0.221 | 0.325 | 0.282 | 0.391 | 0.315 | 0.213 | 0.159 | 0.178 | 0.204 | 0.195 | 0.17 | 0.297 | 0.272 | 0.289 | 0.352
19 | NCI-H1437 | 1.02 | 1.17 | 0.883 | 0.993 | 0.8 | 0.799 | 0.759 | 0.791 | 0.759 | 0.405 | 0.38 | 0.409 | 0.372 | 0.389 | 0.607 | 0.594 | 0.524 | 0.536
20 | COR-L23 | 0.735 | 0.786 | 0.601 | 0.689 | 0.378 | 0.431 | 0.462 | 0.5 | 0.374 | 0.208 | 0.195 | 0.256 | 0.23 | 0.201 | 0.382 | 0.516 | 0.399 | 0.398
